Data reported in patent EP3485874A1, “METHOD OF PREPARING A NATURAL DEEP EUTECTIC SOLVENT (NADES)-ACTIVE INGREDIENT SYSTEM; A NADES-, AND PREFERABLY A POLYMERIC PRECIPITATION INHIBITOR CONTAINING NADES-, BASED DRUG FORMULATION TECHNOLOGY AND DEVELOPMENT METHOD” (SeraNovo B.V., priority 2017, dated 2019).
Values after ≈ are worked out from the molar mass of the structure shown. Read-outs that look alike come from different tables or passages of the source. Each block holds one compound with its values, some of them ahead of it.

Experiments:
Assay type in all cases: physicochemical
[1] = pKa of the active ingredient
Text: Further, the analysis also at least involves determination of acidity/basicity of the compound by determining the pKa value by standard methods. In the case of previously analyzed compounds such information typically available in published literature.

[2] = Solubility of the active ingredient in NADES; conditions: thermodynamic from solid
Protocol: Subsequently, selected constituents are weighed out in the appropriate molar ratios and corresponding masses and are added to a suitable receptacle, such as a small bottle or other small vessel. In the receptacle generally a stirring element is added, such as a stirring flea. If two or more solid constituents are present, these are generally heated, for instance to about 70°C. When at least one liquid constituent is present, it is generally not needed to heat the system to temperatures higher than about 50°C. The constituents are stirred. When two (or more) solid constituents are mixed, this often leads to high or very high viscosities, in which case addition of some water or other liquid excipients such as propylene glycol is recommended. The stirring is continued until a clear liquid is formed.
After a clear liquid is obtained, it is preferred to let it cool and sit for 24 hours or so, as a check for stability. If a NADES is not stable at RT (room temperature; in other words, if the eutectic point is higher than RT at the selected molar ratio), one can try adding additional constituents or trying a different molar ratio.
Once cooled, the pH of the system is measured. An acidic NADES will in general be good at solubilizing a basic active ingredient due to protonation and vice versa. The stability can also be influenced by the pH, where usually a range of pH values is given that results in the best stability.
Usually it is apparent within an hour whether or not a solvent is going to achieve any worthwhile solubility value. If the solute sticks to the side of the receptacle and/or floats on top, investigation into this solvent can be terminated. If the solute makes for a cloudy solution, further dilution may yield success.

[3] = Solubility of the active ingredient in comparable solvents (polar to nonpolar)
Protocol: These values are expressed in mg/ml and determined at a temperature of 25°C at 1 atm. In a preferred embodiment, also the solubility is determined in water-based systems having different pH's, or having different temperatures; and in water-based systems wherein co-solvents are present; and in stomach or intestinal media. Solubility information in a broad range of solvents (including oils, dichloromethane, methanol), is useful because the knowledge of in which type of solvents the active ingredient dissolves well, helps in designing a NADES with similar properties.

[4] = Particle size of precipitate after about 100 fold dilution of the NADES:PPI formulation with intestinal medium (FaSSIF), optical microscopy
Protocol: All PPI's that are soluble at approximately a PPI to active ingredient ratio of 1 to 5 are selected for the next stage of testing. A small sample of for example 100 µl is taken from the NADES:PPI mixture and the appropriate mass of active ingredient is solubilized in the system as above. Each NADES: PPI: active ingredient sample is diluted approximately 100 fold with intestinal medium solutions e.g. Fast State Simulated Intestinal Fluid (FaSSIF). The system with the smallest particle size over a 2 hour period is determined to be the best performing formulation. The particle size is determined using visual inspection and optical microscopy.
The precipitant molecules should in this light have a size less than approximately 10/µm, preferably less than 5µm and ideally less than about 1µm. These sizes are measured at 10 minute intervals over a 2 hours period to analyse the crystal growth. The crystal sizes are monitored using an optical microscope in initial samples; yet are more accurately measured after 2 hours using a Malvern Mastersizer 3000 or similar particle sizing equipment.
Below are microscope images of formulations of flufenamic acid diluted with intestinal medium. The dilution is approximately similar to 1ml of formulation being released into the intestine. The goal is to have sufficiently small particle sizes for a sufficiently long period of time to promote drug absorption. Figures 1, 2 and 3 show progressions in particle size of flufenamic acid in formulations designed using the present invention.
The following example is of a poorly water-soluble molecule, Paclitaxel, and the process of designing a system using the aforementioned invention. […] The second objective was to select one or more PPI's capable of controlling the size of precipitant upon an approximately 100 fold dilution with intestinal medium. The target dose of the formulation was 30mg/ml. The variation in particle size between formulations was analysed with visual inspection. The best performing formulations were compared with a size calibrated optical microscope and camera.

[5] = Stability of the active ingredient (pH, storage)
Protocol: Suitable secondary criteria are for instance the absolute oral bioavailability, typically denoted as a percentage of the maximum bioavailability of 100% which is defined as the bioavailability of the intravenous formulation as measured in a living being such as those used in animal trials or in human trials. Bioavailability is measured as the AUC (Area Under Curve) of the plasma concentration of a drug collected over a certain period of time, which depends on the half-life of the drug. Another suitable criterion is the stability data (such as temperature sensibility and pH range of stability expressed in time units). This is expressed as a duration in days/months/years where the compound has not undergone unacceptable levels of degradation (<10%) in specific conditions e.g. low pH.

[6] = NADES, organic solvent or mixture, Choline Chloride: Propylene Glycol (1:3), pH 6.71

- pKa ([1]; read-out: pKa): 3.65
- solubility [2, 6]: 28 mg/mL (≈ 99.6 mM)
- solubility ([2]; aqueous with cosolvent or surfactant or cyclodextrin, Choline chloride: Lactic acid: water (2:1:2), pH 2.19, polar NADES): < 1 mg/mL
- solubility ([2]; organic solvent or mixture, Acetamide: Propylene Glycol (1:2), pH 6.47, basic NADES): 93.1 mg/mL (≈ 331 mM)
- solubility ([2]; organic solvent or mixture, Acetamide: Propylene Glycol (1:3), pH 6.89, basic NADES): 50 mg/mL (≈ 178 mM)
- solubility ([2]; organic solvent or mixture, Choline Chloride: Ethylene Glycol (1:3), pH 6.08, neutral NADES): 28 mg/mL (≈ 99.6 mM)
- solubility ([2]; organic solvent or mixture, Choline chloride: glucose: butylene glycol (2:1:1), polar NADES): < 1 mg/mL
- solubility ([2]; organic solvent or mixture, Sorbitol: Urea (1:1), pH 8.3, polar NADES): < 1 mg/mL
- solubility in cyclohexane ([3]; cyclohexane): very low
- solubility ([3]; dimethyl sulfoxide, 25 °C, organic solvent or mixture, read-out: solubility in dimethyl sulfoxide): > 50 mg/mL
- solubility ([3]; ethanol, 25 °C, organic solvent or mixture, read-out: solubility in ethanol): > 50 mg/mL
- solubility in hexane ([3]; hexane): very low
- solubility in mineral oil (paraffin oil) ([3]; mineral oil (paraffin oil)): very low
- Water solubility ([3]; water, 25°C and 1atm): very low
- solubility ([3]; water, 25°C and 1atm, read-out: Water solubility): 0.009 mg/mL (≈ 0.032 mM)
- Particle size result (microscope photograph, Fig. 2) ([4]; 28 mg/ml in choline chloride: propylene glycol (1:3) with 14 mg/ml Polyethylene Glycol-4000 solubilized in FaSSIF, 40x magnification): poor result
- Particle size result (microscope photograph, Fig. 3) ([4]; 28 mg/ml in choline chloride: propylene glycol (1:3) with 56 mg/ml Polyethylene Glycol-4000 solubilized in FaSSIF, 40x magnification): good result
- Stability ([5]; both acidic and basic aqueous solutions, period of 3 months at RT): stable
SMILES: O=C(O)c1ccccc1Nc1cccc(C(F)(F)F)c1 [Flufenamic acid]

- pKa [1]: 11.9
- pKa ([1]; read-out: pKa): 11.9
- solubility [2, 6]: 30 mg/mL (≈ 35.1 mM)
- solubility ([2]; aqueous with cosolvent or surfactant or cyclodextrin, Malic acid: Beta alanine: Water (1:1:2), pH 3.43, acidic NADES): < 1 mg/mL
- solubility ([2]; aqueous with cosolvent or surfactant or cyclodextrin, Sucrose: Glucose: Fructose: Water (1:1:1:8), pH 3.36, polar NADES): < 1 mg/mL
- solubility ([2]; pH 9.8, aqueous with cosolvent or surfactant or cyclodextrin, Choline Chloride: Urea: Water (1:1:2), pH 9.80, polar NADES): < 1 mg/mL
- solubility ([3]; caster oil, 25 °C, oil or lipid, read-out: approximate solubility in caster oil): 15 to 20 mg/mL (≈ 17.6 to 23.4 mM)
- solubility in ethanol ([3]; ethanol): 1.5 mg/mL (≈ 1.76 mM)
- solubility ([3]; olive oil, 25 °C, oil or lipid, read-out: approximate solubility in olive oil): 15 to 20 mg/mL (≈ 17.6 to 23.4 mM)
- Particle size result (microscope photograph, Fig. 4) ([4]; 30 mg/ml in choline chloride: propylene glycol (1:3) with 30 mg/ml hypromellose acetate succinate solubilized in FaSSIF, 40x magnification): good result
- Particle size, majority of observable particles (Fig. 4) ([4]; formulation diluted with intestinal medium, particles less than 1 µm not detected by optical microscopy): less than 10 µm
- pH range in which most stable [5]: 3-6 pH
- Stability at basic pH ([5]; basic pH (8)): degrades quickly
SMILES: CC(=O)O[C@H]1C(=O)[C@@]2(C)[C@H]([C@H](OC(=O)c3ccccc3)[C@]3(O)C[C@H](OC(=O)[C@H](O)[C@@H](NC(=O)c4ccccc4)c4ccccc4)C(C)=C1C3(C)C)[C@]1(OC(C)=O)CO[C@@H]1C[C@@H]2O [Paclitaxel]
